The values that follow come from patent US8299267B2, “(3-hydroxy-4-amino-butan-2-yl) -3- (2-thiazol-2-yl-pyrrolidine-1-carbonyl) benzamide derivatives and related compounds as beta-secretase inhibitors for treating” (CoMentis, Inc., priority 2007, dated 2012).

Structures are written as SMILES. Bounds are passed on as bounds.

This assay addresses memapsin 2 (Homo sapiens, UniProt P56817). Put plainly: Inhibition of memapsin 2 beta-secretase activity toward fluorogenic substrate FS-2. The class given is biochemical. The note with it: memapsin 2, pH 4, 37° C., 20 minutes pre-incubation, substrate FS-2; read-out: M2Ki. Here is the method: Potency of compounds were determined by measurement of their inhibition of memapsin 2 activity toward a fluorescent substrate. Kinetic inhibition experiments were performed using the procedure as described in Ermolieff, et al. (Biochemistry 39:12450-12456 (2000), the teachings of which are incorporated hereby in their entirety). Briefly, assays were performed at pH 4, 37° C., by pre-incubation of memapsin 2 enzyme with compound for 20 minutes. Activity measurements were initiated by addition of a fluorogenic substrate FS-2 (Bachem Americas, Torrance, Calif.) MCA-SEVNLDAEFK-DNP (SEQ ID NO.: 2). The substrate was derived from 10 amino acids of the human amyloid precursor protein (APP), with the Swedish variant amino acids at the beta-secretase cleavage site. The terminal amino acid was modified from arginine to lysine to facilitate derivatization with a functional group for detection by autofluorescence. The amino acid sequence of the “core” peptide of the substrate is SEVNLDAEFK (SEQ ID NO.: 3). The amino terminus was derivatized with (7-methoxycoumarin-4-yl)acetyl (MCA), and the epsilon amine of the lysine side chain of the terminal residue (K in sequence SEVNLDAEFK (SEQ ID NO.: 4)) was derivatized with 2,4-dinitrophenyl (DNP).

Chain of memapsin 2 (P56817 46-501): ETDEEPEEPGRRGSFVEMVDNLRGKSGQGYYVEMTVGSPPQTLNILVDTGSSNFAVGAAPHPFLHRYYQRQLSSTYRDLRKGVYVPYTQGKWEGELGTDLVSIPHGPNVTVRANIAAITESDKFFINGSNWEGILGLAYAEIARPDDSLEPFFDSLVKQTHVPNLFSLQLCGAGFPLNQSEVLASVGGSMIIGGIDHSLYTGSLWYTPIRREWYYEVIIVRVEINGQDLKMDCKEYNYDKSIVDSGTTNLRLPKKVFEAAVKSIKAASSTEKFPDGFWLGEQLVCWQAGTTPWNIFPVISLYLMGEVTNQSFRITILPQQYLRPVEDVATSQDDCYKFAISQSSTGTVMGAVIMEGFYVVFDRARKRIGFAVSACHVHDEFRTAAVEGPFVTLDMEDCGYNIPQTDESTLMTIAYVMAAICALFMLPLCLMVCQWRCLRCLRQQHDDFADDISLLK

Regarding `COc1cccc([C@H](C)NC[C@@H](O)[C@H](Cc2ccccc2)NC(=O)c2cc(C(=O)N3CCC[C@@H]3c3nc(C)cs3)cc(N(C)C)c2)c1` [Compound 53, 3-(dimethylamino)-N-((2S,3R)-3-hydroxy-4-((S)-1-(3-methoxyphenyl)ethylamino)-1-phenylbutan-2-yl)-5-((R)-2-(4-methylthiazol-2-yl)pyrrolidine-1-carbonyl)benzamide], the Ki was in the range of 0.101 to 0.2 µM. Then `Cc1csc([C@H]2CCCN2C(=O)c2cccc(C(=O)N[C@@H](Cc3ccccc3)[C@H](O)CNCc3cc(C(C)C)on3)c2)n1` [Compound 106, N-((2S,3R)-3-hydroxy-4-((5-isopropylisoxazol-3-yl)methylamino)-1-phenylbutan-2-yl)-3-((R)-2-(4-methylthiazol-2-yl)pyrrolidine-1-carbonyl)benzamide], with below 0.1 µM. For the compound `Cc1cc(C(=O)N[C@@H](Cc2ccccc2)[C@H](O)CNCc2cc3ccccc3o2)cc(C(=O)N2CCC[C@@H]2c2nc(C)cs2)c1` [Compound 97, N-((2S,3R)-4-(benzofuran-2-ylmethylamino)-3-hydroxy-1-phenylbutan-2-yl)-3-methyl-5-((R)-2-(4-methylthiazol-2-yl)pyrrolidine-1-carbonyl)benzamide], the Ki was above 0.201 µM.

With `Cc1coc([C@H]2CCCN2C(=O)c2cncc(C(=O)N[C@@H](Cc3ccccc3)[C@H](O)CNCc3cccc(C(F)(F)F)c3)c2)n1` [Compound 72, N-((2S,3R)-3-hydroxy-1-phenyl-4-(3-(trifluoromethyl)benzylamino)butan-2-yl)-5-((R)-2-(4-methyloxazol-2-yl)pyrrolidine-1-carbonyl)nicotinamide], the Ki is below 0.1 µM. With `Cc1csc([C@H]2CCCN2C(=O)c2cc(C(=O)N[C@@H](Cc3ccccc3)[C@H](O)CNCc3cccc(C(F)(F)F)c3)cc(N(C)C)n2)n1` [Compound 98, 2-(dimethylamino)-N-((2S,3R)-3-hydroxy-1-phenyl-4-(3-(trifluoromethyl)benzylamino)butan-2-yl)-6-((R)-2-(4-methylthiazol-2-yl)pyrrolidine-1-carbonyl)isonicotinamide], the Ki was below 0.1 µM. On to `Cc1coc([C@H]2CCCN2C(=O)c2cccc(C(=O)N[C@@H](Cc3ccccc3)[C@H](O)CNCc3cccc(OC(F)(F)F)c3)c2)n1` [Compound 114, N-((2S,3R)-3-hydroxy-1-phenyl-4-(3-(trifluoromethoxy)benzylamino)butan-2-yl)-3-((R)-2-(4-methyloxazol-2-yl)pyrrolidine-1-carbonyl)benzamide], for which the Ki is below 0.1 µM. Turning to `CCn1cc(CNC[C@@H](O)[C@H](Cc2ccccc2)NC(=O)c2cccc(C(=O)N3CCC[C@@H]3c3nc(C)co3)c2)cn1` [Compound 109, N-((2S,3R)-4-((1-ethyl-1H-pyrazol-4-yl)methylamino)-3-hydroxy-1-phenylbutan-2-yl)-3-((R)-2-(4-methyloxazol-2-yl)pyrrolidine-1-carbonyl)benzamide], the Ki lay within 0.101 to 0.2 µM. As to `Cc1cc(C(=O)N2CCC[C@@H]2c2nc(C)co2)cc(C(=O)N[C@@H](Cc2ccccc2)[C@H](O)CNCc2cccc(C(F)(F)F)c2)n1` [Compound 96, N-((2S,3R)-3-hydroxy-1-phenyl-4-(3-(trifluoromethyl)benzylamino)butan-2-yl)-6-methyl-4-((R)-2-(4-methyloxazol-2-yl)pyrrolidine-1-carbonyl)picolinamide], the Ki is below 0.1 µM. Then `COc1cc(C(=O)N[C@@H](Cc2ccccc2)[C@H](O)CNCc2cc(Cl)cc(Cl)c2)cc(C(=O)N2CCC[C@@H]2c2nc(C)cs2)c1` [Compound 54, N-((2S,3R)-4-(3,5-dichlorobenzylamino)-3-hydroxy-1-phenylbutan-2-yl)-3-methoxy-5-((R)-2-(4-methylthiazol-2-yl)pyrrolidine-1-carbonyl)benzamide], with below 0.1 µM. In the case of `COc1cccc(CNC[C@@H](O)[C@H](Cc2ccccc2)NC(=O)c2cccc(C(=O)N3CS(=O)(=O)C[C@@H]3c3nc(C)cs3)c2)c1` [Compound 13, N-((2S,3R)-3-hydroxy-4-(3-methoxybenzylamino)-1-phenylbutan-2-yl)-3-((R)-4-(4-methylthiazol-2-yl)thiazolidine-S-dioxide-3-carbonyl)benzamide], the Ki is above 0.201 µM.

On to `Cc1csc([C@H]2CCCN2C(=O)c2cc(C(=O)N[C@@H](Cc3ccccc3)[C@H](O)CNCc3cncc(C(C)(C)F)c3)cc(N(C)C)c2)n1` [Compound 36, 3-(dimethylamino)-N-((2S,3R)-4-((5-(2-fluoropropan-2-yl)pyridin-3-yl)methylamino)-3-hydroxy-1-phenylbutan-2-yl)-5-((R)-2-(4-methylthiazol-2-yl)pyrrolidine-1-carbonyl)benzamide], for which the Ki is below 0.1 µM. Then `COc1cccc([C@H](C)NC[C@@H](O)[C@H](Cc2ccccc2)NC(=O)c2cc(C(=O)N3CCC[C@@H]3c3nc(C)cs3)cc(C(F)F)c2)c1` [Compound 63, 3-(difluoromethyl)-N-((2S,3R)-3-hydroxy-4-((S)-1-(3-methoxyphenyl)ethylamino)-1-phenylbutan-2-yl)-5-((R)-2-(4-methylthiazol-2-yl)pyrrolidine-1-carbonyl)benzamide], with below 0.1 µM; and `Cc1csc([C@H]2CCCN2C(=O)c2cccc(C(=O)N[C@@H](Cc3ccccc3)[C@H](O)CNC3CC3)c2)n1` [Compound 19, N-((2S,3R)-4-(cyclopropylamino)-3-hydroxy-1-phenylbutan-2-yl)-3-((R)-2-(4-methylthiazol-2-yl)pyrrolidine-1-carbonyl)benzamide], with above 0.201 µM; and `Cc1csc([C@H]2CCCN2C(=O)c2cc(C(=O)N[C@@H](Cc3ccccc3)[C@H](O)CNCc3cccc(C(F)(F)F)c3)nc(N(C)C)n2)n1` [Compound 100, 2-(dimethylamino)-N-((2S,3R)-3-hydroxy-1-phenyl-4-(3-(trifluoromethyl)benzylamino)butan-2-yl)-6-((R)-2-(4-methylthiazol-2-yl)pyrrolidine-1-carbonyl)pyrimidine-4-carboxamide], with below 0.1 µM. `Cc1cc(C(=O)N[C@@H](Cc2ccccc2)[C@H](O)CNCc2cncc(C(C)(F)F)c2)cc(C(=O)N2CCC[C@@H]2c2nc(C)co2)c1` [Compound 113, N-((2S,3R)-4-((5-(1,1-difluoroethyl)pyridin-3-yl)methylamino)-3-hydroxy-1-phenylbutan-2-yl)-3-methyl-5-((R)-2-(4-methyloxazol-2-yl)pyrrolidine-1-carbonyl)benzamide]: the Ki is below 0.1 µM. `COc1cccc(CNC[C@@H](O)[C@H](Cc2ccccc2)NC(=O)c2cccc(C(=O)N3C[C@H](OC)C[C@@H]3c3nc(C)cs3)c2)c1` [Compound 7, N-((2S,3R)-3-hydroxy-4-(3-methoxybenzylamino)-1-phenylbutan-2-yl)-3-((2R,4R)-4-methoxy-2-(4-methylthiazol-2-yl)pyrrolidine-1-carbonyl)benzamide]: the Ki is above 0.201 µM. The same measure for `Cc1csc(CNC[C@@H](O)[C@H](Cc2ccccc2)NC(=O)c2cccc(C(=O)N3CCC[C@@H]3c3nc(C)cs3)c2)n1` [Compound 67, N-((2S,3R)-3-hydroxy-4-((4-methylthiazol-2-yl)methylamino)-1-phenylbutan-2-yl)-3-((R)-2-(4-methylthiazol-2-yl)pyrrolidine-1-carbonyl)benzamide]: above 0.201 µM.
